Laboratory results: article PMC3933693, “Novel Inhibitors of Mitochondrial sn-Glycerol 3-phosphate Dehydrogenase” (PLoS ONE, 2014)
“And” between values parts separate entries of the source, which are not always exact repeats. Identical values can stand only once.

What was measured:
[1] = target: T1, outer ubiquinone-binding site of complex III (site IIIQo) (Rattus norvegicus, UniProt P00159+P20788); experiment: Site-specific H2O2 production from site IIIQo in skeletal muscle mitochondria; format: biochemical; conditions: primary screen, ∼2.5 µM, average of duplicates; 5 mM succinate
T1 construct: from tissue; host or cells: skeletal muscle mitochondria
Procedure, shortened: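 Isolated rat skeletal muscle mitochondria; H2O2 read by Amplex UltraRed with added SOD and HRP. Site IF/DH: 5 mM glutamate, 5 mM malate, 4 µM rotenone. Site IIF: palmitoylcarnitine or succinate with rotenone/antimycin A/myxothiazol. Site IIIQo: succinate, rotenone, antimycin A. Screen at 2.5 µM, normalised as % change from DMSO.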

[2] = target: T2, mGPDH (Rattus norvegicus, UniProt P35571); experiment: mGPDH enzymatic activity (DCPIP-linked reduction by glycerol phosphate) in frozen-thawed skeletal muscle mitochondria; format: biochemical
T2 construct: from tissue; host or cells: skeletal muscle mitochondria
T2 sequence (P35571 43-727): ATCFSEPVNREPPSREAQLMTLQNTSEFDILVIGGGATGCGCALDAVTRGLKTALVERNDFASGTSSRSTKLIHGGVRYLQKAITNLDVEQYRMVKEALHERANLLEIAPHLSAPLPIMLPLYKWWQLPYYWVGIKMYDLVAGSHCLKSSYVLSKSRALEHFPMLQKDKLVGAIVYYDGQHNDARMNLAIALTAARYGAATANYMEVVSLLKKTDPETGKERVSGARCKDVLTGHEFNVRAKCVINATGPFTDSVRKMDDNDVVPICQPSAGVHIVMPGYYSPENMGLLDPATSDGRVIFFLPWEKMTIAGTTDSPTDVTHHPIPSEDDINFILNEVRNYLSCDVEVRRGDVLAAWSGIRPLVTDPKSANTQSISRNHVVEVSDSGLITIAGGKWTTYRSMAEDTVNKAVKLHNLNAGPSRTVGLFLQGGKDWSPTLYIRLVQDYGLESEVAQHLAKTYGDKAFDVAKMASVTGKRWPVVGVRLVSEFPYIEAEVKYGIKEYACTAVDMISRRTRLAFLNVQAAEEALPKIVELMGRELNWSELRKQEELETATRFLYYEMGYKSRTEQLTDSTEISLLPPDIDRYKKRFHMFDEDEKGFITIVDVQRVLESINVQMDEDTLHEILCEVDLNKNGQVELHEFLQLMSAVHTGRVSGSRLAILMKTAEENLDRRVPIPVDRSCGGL
Description: Activity of mGPDH in frozen-thawed skeletal muscle mitochondria was measured as 2,6-dichlorophenolindophenol (DCPIP)-linked reduction by glycerol phosphate as described previously in the presence of 1 µM free calcium. Linear rates of change in absorbance (λ = 600 nm) were measured on the PHERAstar microplate reader and converted to rates of DCPIP reduction using an extinction coefficient of 21 mM^−1 ⋅ cm^−1 and a calculated pathlength of 0.6 cm. Kinetic parameters and inhibitor constants were determined by co-varying glycerol phosphate and novel inhibitors according to recommended procedures and calculated for each data set using GraphPad Prism. Vmax and Km were determined using hyperbolic curves fit to the Michaelis-Menten equation: rate = (Vmax ⋅ [substrate]) ⋅ (K m+[substrate])^ −1. Hill Slope and IC50 were determined using unconstrained, sigmoidal dose-response curve fits of % remaining activity against concentration of iGP. K ic and K iu were determined using plots of rate^−1 vs iGP and GP ⋅ rate^−1 vs iGP, respectively. Linear regression analysis yielded an average x-coordinate at which the best-fit lines intersect. These x-coordinates correspond to -K ic and -K iu in their respective plots. The apparent Vmax of mGPDH is dependent upon the concentration of DCPIP used, [38]. Therefore, to determine the maximal activity of mGPDH in isolated synaptosomes, DCPIP was replaced by 1 mM potassium ferricyanide and linear rates of change in absorbance (λ = 420 nm) were converted to rates of ferricyanide reduction using an extinction coefficient of 1.04 mM^−1 ⋅ cm^−1 and a calculated pathlength of 0.6 cm.

[3] = tested on: skeletal muscle mitochondria; experiment: Mitochondrial respiration (Seahorse XF24) in plate-attached skeletal muscle mitochondria; format: biochemical, rat
Description: The effects of small-molecule inhibitors on respiration were tested in plate-attached skeletal muscle mitochondria using a Seahorse XF24 Analyzer according to published protocols. Briefly, mitochondria (2 or 4 µg protein) were attached to Seahorse assay plates by centrifugation in a mannitol and sucrose-based medium (Seahorse MAS buffer) containing 0.3% (w/v) BSA without or with 250 nM free calcium at pH 7.0. […] Compounds were added in these media just prior to loading the assay plate into the Seahorse instrument. Additions were made to set respiration in basal state 2 (substrate only), phosphorylating state 3 (5 mM ADP), non-phosphorylating state 4o (0.5 ug ⋅ mL^−1 oligomycin), and to reveal the non-mitochondrial rate (2 µM myxothiazol and 2.5 µM antimycin A). Each concentration of compound was tested in at least two wells on each plate. At least three biological replicates of each titration in each substrate condition were performed.

IIIQo (% change from DMSO) [1]: -0.246% | mGPDH Activity Hill Slope ([2]; 1 µM free calcium): 0.92 and 0.92±0.08 | IC50 ([2]; 1 µM free calcium, Fig. 9A): 6.3 ± 0.7 µM | effect on mGPDH enzymatic activity ([2]; all concentrations tested, Fig. 5): significantly inhibited | K iu (uncompetitive inhibitor dissociation constant) ([2]; co-varying glycerol phosphate and inhibitor): 14.6 ± 1.5 µM | Ki ([2]; co-varying glycerol phosphate and inhibitor, read-out: K ic (competitive inhibitor dissociation constant)): 9.5 ± 1.1 µM
SMILES: O=C(O)CCC(=O)Nc1ccc(-c2nc3ccccc3[nH]2)cc1 [iGP-1]
effect on glycerol phosphate-dependent respiration ([3]; 25 and 80 µM, 16.7 mM glycerol phosphate, rotenone, 250 nM free calcium): significantly decreased | effect on respiration on other substrates ([3]; pyruvate and malate, glutamate and malate, succinate and rotenone): without altering
